Data reported in patent US12162878B2 (HINOVA PHARMACEUTICALS INC., priority 2018, dated 2024).

Experiments:
BRD2(1,2) = BRD2(1,2) (Homo sapiens (Human), UniProt P25440); assay: AlphaScreen binding of compounds on BRD2 (D1+D2); settings: read-out: IC50 against BRD2(1,2)
Source text: (§1) Homogeneous time-resolved fluorescence technology (HTRF) was used to determine the binding effect of compounds on BRD4 (D1+D2) and BRDT (D1) proteins, as well as AlphaScreen method was used to detect the binding effect of compounds on BRD2 (D1+D2) and BRD3 (D1+D2) proteins.
(§2) The compounds were screened in vitro, and each compound was serially diluted to 10 concentrations. Four proteins BRD4 (D1+D2), BRDT (D1), BRD2 (D1+D2) and BRD3 (D1+D2) were chosen to determine the IC50 values of compounds (see Table 1).
(§3) 4. Compound treatment: The test compound was dissolved in dimethyl sulfoxide (DMSO), and the storage concentration was 10 mM.
(§4) 6. AlphaScreen Detection Procedures:
(§5) 1) Preparing One-Fold Concentration of Detection Buffer
(§6) One-fold concentration of detection buffer was prepared (Improved HEPES buffer)
(§7) 2) Gradient Dilution of Compounds
(§8) Echo automatic sampler was used to transfer the compound to the detection plate for gradient dilution, so that the final concentration of dimethyl sulfoxide was 0.1%.
(§9) 3) Preparation of Protein Solution
(§10) The protein was dissolved in one-fold concentration of detection buffer.
(§11) 4) Preparation of Substrate Solution
(§12) The peptide was dissolved in one-fold concentration of detection buffer to prepare the substrate solution.
(§13) 5) 5 μL protein solution was transferred to the detection plate, and one-fold concentration of detection buffer (5 μL) was placed in the negative control wells.
(§14) 6) The plate was incubated for 15 min at room temperature.
(§15) 7) 5 μL substrate solution was added to each well to start the reaction.
(§16) 8) The plate was incubated for additional 60 min at room temperature.
(§17) 9) Preparation of acceptor solution and donor solution in one-fold concentration of assay buffer Acceptor solution (15 μL) and donor solution (15 μL) were respectively added, and then incubated at room temperature for 60 min and protected against exposure to light.
(§18) 10) The endpoint was read in EnSpire and Alpha mode.
(§19) The experimental data were recorded in an Excel file and equation (1) was used to get the inhibition rate. Inh%=(Max−Signal)/(Max−Min)*100 Equation (1):
(§20) The obtained data were input into GraphPad software, and equation (2) was used to obtain the IC50 value. Y=Bottom+(Top−Bottom)/(1+10^((Log IC50−X)*Hill Slope)) Formula (2): […]
(§21) Wherein, Y axis was the inhibition rate, and the X axis was the compound concentration.

BRD3(1,2) = BRD3(1,2) (Homo sapiens (Human), UniProt Q15059); assay: AlphaScreen binding of compounds on BRD3 (D1+D2); settings: read-out: IC50 against BRD3(1,2)
Source text: as §1, §2, §3, §4, §5, §6, §7, §8, §9, §10, §11, §12, §13, §14, §15, §16, §17, §18, §19, §20, §21

BRDT(D1) = BRDT(D1) (Homo sapiens (Human), UniProt Q58F21); assay: HTRF binding of compounds on BRDT (D1); settings: read-out: IC50 against BRDT(D1)
Source text: as §1, §2, §3
(§22) 5. Steps for Homogeneous Time-Resolved Fluorescence Detection:
(§23) 1) According to the arrangement of the detection plate, all compounds were diluted in Echo plate.
(§24) The final dilution concentration of DMSO is 0.1%.
(§25) 2) The compound or DMSO was transferred to a 384-well detection plate with the Echo automatic sampler.
(§26) 3) Two-fold concentration of the mixture of protein and peptide was added to the detection plate.
(§27) 4) Two-fold concentration of mixed detection solution was added to the test plate, and shaken for 30 s.
(§28) 5) Incubating for 2 h at room temperature.
(§29) 6) Fluorescence signal was read on Envision multi-function microplate reader (excitation light wavelength being 340 nm, and emission light wavelength being 615 nm and 665 nm).
(§30) The experimental data were recorded in an Excel file, and equation (1) was used to obtain the inhibition rate. Inh%=(Max−Signal)/(Max−Min)*100 Equation (1):
(§31) The obtained data was recorded in GraphPad software, and equation (2) was used to provide the IC50 values. Y=Bottom+(Top−Bottom)/(1+10^((Log IC50−X)*Hill Slope)) Equation (2): […]
(§32) Y axis was the inhibition rate, and X axis was the compound concentration.

BRD4(1,2) = BRD4(1,2) (Homo sapiens (Human), UniProt O60885); assay: HTRF binding of compounds on BRD4 (D1+D2); settings: read-out: IC50 against BRD4(1,2)
Source text: as §1, §2, §3, §22, §23, §24, §25, §26, §27, §28, §29, §30, §31, §32

CWR22RV1 cells = assay: Inhibition of proliferation of CWR22RV1 cells (CCK-8); assay type: cell-based, human; settings: 6 days
Method in brief: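 Cells seeded at 1500/well, cultured overnight, then exposed to compounds in 3-fold dilutions (9 concentrations from 10 μM top final, 0.1% DMSO) for 6 days at 37 °C. Viability read by CCK-8 absorbance at 450 nm after 2.5 h; IC50 from dose-response inhibition fit.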

BRD3(1,2), sequence (Q15059 29-417): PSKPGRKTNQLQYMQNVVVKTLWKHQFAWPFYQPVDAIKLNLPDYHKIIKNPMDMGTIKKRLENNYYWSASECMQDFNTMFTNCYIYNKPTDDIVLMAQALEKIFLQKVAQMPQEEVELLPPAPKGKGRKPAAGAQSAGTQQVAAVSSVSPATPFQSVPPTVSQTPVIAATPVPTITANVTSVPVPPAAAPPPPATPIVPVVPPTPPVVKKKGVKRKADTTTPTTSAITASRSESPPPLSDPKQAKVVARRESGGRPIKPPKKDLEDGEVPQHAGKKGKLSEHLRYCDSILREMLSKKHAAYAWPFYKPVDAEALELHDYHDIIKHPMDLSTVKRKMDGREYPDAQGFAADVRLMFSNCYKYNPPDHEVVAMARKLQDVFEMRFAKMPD
BRD2(1,2), sequence (P25440 65-459): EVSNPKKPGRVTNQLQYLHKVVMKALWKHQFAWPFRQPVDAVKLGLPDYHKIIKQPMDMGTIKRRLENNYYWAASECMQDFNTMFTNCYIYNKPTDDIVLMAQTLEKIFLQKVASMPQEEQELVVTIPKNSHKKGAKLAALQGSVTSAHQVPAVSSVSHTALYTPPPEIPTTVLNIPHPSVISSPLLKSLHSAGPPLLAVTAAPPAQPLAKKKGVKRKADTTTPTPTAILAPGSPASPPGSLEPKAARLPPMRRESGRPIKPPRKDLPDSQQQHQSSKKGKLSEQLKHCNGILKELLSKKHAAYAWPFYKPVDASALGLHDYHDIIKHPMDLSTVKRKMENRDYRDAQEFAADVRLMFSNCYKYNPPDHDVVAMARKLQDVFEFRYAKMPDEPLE

| IC50 (BRD2(1,2)) | IC50 (BRD3(1,2)) | IC50 (BRDT(D1)) | IC50 (BRD4(1,2)) | SMILES | IC50 (CWR22RV1 cells; Homo sapiens, CWR22Rv1, 144 h) | IC50 (CWR22RV1 cells) |
| --- | --- | --- | --- | --- | --- | --- |
| 2.7 nM | 5.8 nM | 32 nM | 14 nM | CCS(=O)(=O)Nc1ccc(N2CCC3(CC2)CC3(F)F)c(-c2cn(C)c(=O)c3[nH]ccc23)c1 [Compound 193, N-(4-(1,1-difluoro-6-aza-spiro[2.5]octan-6-yl)-3-(6-methyl-7-oxo-6,7-dihydro-1H-pyrrolo[2,3-c]pyridin-4-yl)phenyl)ethanesulfonamide] | 4 nM |  |
| 1.6 nM | 4.5 nM | 16 nM | 5.1 nM | [2H]C([2H])([2H])n1cc(-c2cc(S(=O)(=O)NC)ccc2N2CCC3(CC2)CC3)c2cc[nH]c2c1=O [Compound 202, N-methyl-3-(6-trideuteromethyl-7-oxo-6,7-dihydro-1H-pyrrolo [2,3-c]pyridin-4-yl)-4-(6-aza-spiro[2.5]octan-6-yl)benzenesulfonamide] | 0.5 nM |  |
| 6.5 nM | 7.4 nM | 19 nM | 10 nM | [2H]C([2H])([2H])n1cc(-c2cc(S(=O)(=O)N(C)C)ccc2N2CCC3(CC2)CC3(F)F)c2cc[nH]c2c1=O [Compound 204, 4-(1,1-difluoro-6-aza-spiro[2.5]octan-6-yl)-N,N-dimethyl-3-(6-trideuteromethyl-7-oxo-6,7-dihydro-1H-pyrrolo[2,3-c]pyridin-4-yl)benzenesulfonamide] | 0.7 nM |  |
| 3 nM | 5.2 nM | 18 nM | 14 nM | [2H]C([2H])([2H])n1cc(-c2cc(S(=O)(=O)C(C)(C)C(=O)O)ccc2N2CCC3(CC2)CC3(F)F)c2cc[nH]c2c1=O [Compound 239, 2-((4-(1,1-difluoro-6-aza-spiro[2.5]octan-6-yl)-3-(6-trideuteromethyl-7-oxo-6,7-dihydro-1H-pyrrolo[2,3-c]pyridin-4-yl)phenyl)sulfonyl)-2-methylpropionic acid] | 7.8 nM |  |
| 1.2 nM | 4.3 nM | 21 nM | 6.4 nM | [2H]C([2H])([2H])n1cc(-c2cc(S(=O)(=O)N3CC[C@@H](O)C3)ccc2N2CCC3(CC2)CC3(F)F)c2cc[nH]c2c1=O [Compound 240, (R)-4-(2-(1,1-difluoro-6-aza-spiro[2.5]octan-6-yl)-5-((3-hydroxylpyrrolidin-1-yl)sulfonyl)phenyl)-6-trideuteromethyl-1H-pyrrolo[2,3-c]pyridin-7(6H)-one] | 4.8 nM |  |
| 1.2 nM | 4.1 nM | 17 nM | 5.8 nM | [2H]C([2H])([2H])n1cc(-c2cc(S(=O)(=O)N3CC[C@H](O)C3)ccc2N2CCC3(CC2)CC3(F)F)c2cc[nH]c2c1=O [Compound 241, (S)-4-(2-(1,1-difluoro-6-aza-spiro[2.5]octan-6-yl)-5-((3-hydroxylpyrrolidin-1-yl)sulfonyl)phenyl)-6-trideuteromethyl-1H-pyrrolo[2,3-c]pyridin-7(6H)-one] | 1.7 nM |  |
| 1.5 nM | 5.3 nM | 19 nM | 9.9 nM | [2H]C([2H])([2H])n1cc(-c2cc(S(=O)(=O)N3CC[C@@H](O)C3)cnc2N2CCC3(CC2)CC3)c2cc[nH]c2c1=O [Compound 242] | 2.2 nM |  |
| 1.4 nM | 5.3 nM | 19 nM | 8.9 nM | [2H]C([2H])([2H])n1cc(-c2cc(S(=O)(=O)N3CC[C@H](O)C3)cnc2N2CCC3(CC2)CC3)c2cc[nH]c2c1=O [Compound 243] | 1.3 nM |  |
| 1.5 nM | 4.1 nM | 15 nM | 4.3 nM | [2H]C([2H])([2H])n1cc(-c2cc(S(=O)(=O)CC)ccc2N2CCC3(CC2)CC3(F)F)c2cc[nH]c2c1=O [Compound 250, 4-(2-(1,1-difluoro-6-aza-spiro[2.5]octan-6-yl)-5-(ethylsulfonyl)phenyl)-6-trideuteromethyl-1H-pyrrolo[2,3-c]pyridin-7(6H)-one] |  | 120 nM |
